# Assay results taken from ChEMBL document CHEMBL3085718, “Discovery and optimization of orally active cyclohexane-based prolylcarboxypeptidase (PrCP) inhibitors” (Bioorg Med Chem Lett, 2013).
# What was measured:
# in vivo [1] = details: mouse
# in vivo [2] = details: mouse, po
# in vivo [3] = details: C57, mouse, plasma, po, 30 mg/kg
# [4] = Plasma concentration in C57 mouse at 10 mg/kg, po after 20 hrs by LC/MS analysis; type: ADME, organism-based; parameters: dose 10 mg/kg, route oral
Structure (SMILES),half-life (in vivo [1]),bioavailability (in vivo [2]),concentration at 20 h (in vivo [3]),concentration at 20 h [4]
O=C(NC(c1ccncc1)c1ccc(F)cc1)[C@@H]1CC[C@@H](N2CCOCC2)C[C@H]1c1ccc(Br)cc1 (stereo not given in full),2 h,6.9%,,
O=C(NC(c1ccc(F)cc1)c1ccc(F)cc1)[C@@H]1CC[C@@H](N2CCOCC2)C[C@H]1c1ccc(Br)cc1,7.6 h,77%,1.02 µM,
O=C(NC(c1ccncc1)c1ccc(Cl)cc1)[C@@H]1CC[C@@H](N2CCOCC2)C[C@H]1c1ccc(Br)cc1 (stereo not given in full),1.4 h,8.9%,,
O=C(NC(c1ccc(Cl)cc1)c1ccncc1Cl)[C@@H]1CC[C@@H](N2CCOCC2)C[C@H]1c1ccc(Br)cc1 (stereo not given in full),1.5 h,17%,,
O=C(NC(c1ccc(Cl)cc1)c1ccnc(F)c1)[C@@H]1CC[C@@H](N2CCOCC2)C[C@H]1c1ccc(Br)cc1 (stereo not given in full),2.9 h,90%,0.39 µM,0.163 µM
O=C(NC(c1ccc(Cl)cc1)c1ccc(F)cn1)[C@@H]1CC[C@@H](N2CCOCC2)C[C@H]1c1ccc(Br)cc1 (stereo not given in full),4.9 h,50%,1.84 µM,
O=C(NC(c1ccc(Cl)cc1)c1cnccn1)[C@@H]1CC[C@@H](N2CCOCC2)C[C@H]1c1ccc(Br)cc1 (stereo not given in full),1.2 h,5.2%,,
O=C(NC(c1ccccc1)c1ccccc1)[C@@H]1CC[C@@H](N2CCOCC2)C[C@H]1c1ccc(Br)cc1,3.1 h,36%,,
